In PubChem BioAssay (NCI):
“And” between values parts separate entries of the source, which are not always exact repeats. Equal values may be shown once.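 Grown in 96-well plates, cells were treated for 48 hours with each compound at five concentrations. Insufficient inhibition: endpoint recorded as highest concentration tested. GI50: concentration for 50% inhibition of growth. At the TGI there is no net growth.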

Experiments:
Assay in all cases: DTP human tumour cell line panel, 48 h
[1] = system: A549 NSCLC
[2] = system: UACC-257 melanoma
[3] = system: NCI-H23 lung
[4] = system: LOX IMVI melanoma
[5] = system: SW-620 colon
[6] = system: SR leukemia
[7] = system: K-562 leukemia
[8] = system: SK-MEL-2 melanoma
[9] = system: NCI/ADR-RES ovarian
[10] = system: OVCAR-4 ovarian

| SMILES | GI50 [1] [µM] | TGI [1] | GI50 [2] | TGI [2] | GI50 [3] | TGI [3] | GI50 [4] | TGI [4] | GI50 [5] | TGI [5] | GI50 [6] | TGI [6] | GI50 [7] | TGI [7] | GI50 [8] | TGI [8] | GI50 [9] | TGI [9] | GI50 [10] | TGI [10] |
| --- | --- | --- | --- | --- | --- | --- | --- | --- | --- | --- | --- | --- | --- | --- | --- | --- | --- | --- | --- | --- |
| CCOC1Oc2ccccc2C(=O)/C1=C\Nc1ccc(C(=O)O)c(O)c1 (stereo unspecified) | > 100 | > 100 µM | 19.4 µM | 44.6 µM | 21.4 µM | 63.1 µM | 18.2 µM | 46.8 µM | 30.8 µM | > 100 µM | 39.4 µM | > 100 µM | 36.4 µM | > 100 µM | 46.7 µM | > 100 µM | 20.5 µM | 62 µM | – | – |
| O=C(O)CC(S)C(=O)O.[Li+].[Sb] (stereo unspecified) | > 100 | > 100 µM | > 100 µM | > 100 µM | > 100 µM | > 100 µM | 47.1 µM | > 100 µM | > 100 µM | > 100 µM | 32.9 µM | > 100 µM | 85.3 µM | > 100 µM | 40.5 µM | > 100 µM | > 100 µM | > 100 µM | > 100 µM | > 100 µM |
| COc1ccc2[nH]cc(C3(c4c[nH]c5ccc(OC)cc45)C(=O)Nc4ccc(Cl)cc43)c2c1 | – | – | 2.84 µM | > 100 µM | 3.03 µM | 23.2 µM | 2.16 µM | 5.33 µM | 3.89 µM | 49.4 µM | – | – | 3.69 µM | > 100 µM | 2.9 µM | 6.67 µM | 9.98 µM | > 100 µM | 3.67 µM | 30.5 µM |
| O=C(CS(=O)c1nc2ccccc2nc1-c1ccccc1)Nc1ccc(Cl)cc1 (stereo unspecified) | 32.3 | > 100 µM | 24.7 µM | 77.3 µM | 30.7 µM | > 100 µM | 17.5 µM | 33.6 µM | 26.7 µM | 88.2 µM | 18.7 µM | 47.6 µM | – | – | 27.4 µM | 65.5 µM | 26.4 µM | 81.2 µM | 61.2 µM | > 100 µM |
| CC(=O)OCC1OC([S-])C(OC(C)=O)C(OC(C)=O)C1OC(C)=O.[Au+].c1ccc(CN2[CH-]N(Cc3ccccc3)C(c3ccccc3)=C2c2ccccc2)cc1 | – | 34.7 µM and 7.32 µM | 2.26 µM and 1 µM | 9.22 µM and 3.12 µM | 1.93 µM and 0.408 µM | 4.86 µM and 3.11 µM | 1.65 µM and 0.563 µM | 3.1 µM and 1.32 µM | 2.02 µM and 0.779 µM | 4.61 µM and 2.08 µM | 2.7 µM and 0.364 µM | 8.26 µM and 47.5 µM | 2.59 µM and 0.397 µM | 7.8 µM and 15.1 µM | 2.77 µM and 0.656 µM | 8.11 µM and 2.2 µM | 6.35 µM and 1.68 µM | 21.8 µM and 9.04 µM | 3.54 µM and 0.688 µM | 15.3 µM and 5.82 µM |
| CC1OC(OC2C(O)C(OCCc3ccc(O)c(O)c3)OC(CO)C2OC(=O)/C=C/c2ccc(O)c(O)c2)C(O)C(O)C1O (stereo unspecified) | > 100 | > 100 µM | > 100 µM | > 100 µM | > 100 µM | > 100 µM | 18.2 µM | 36 µM | 28.7 µM | 72 µM | 0.634 µM | > 100 µM | 15.5 µM | > 100 µM | > 100 µM | > 100 µM | > 100 µM | > 100 µM | > 100 µM | > 100 µM |
